Values quoted from earlier work, collected in US20180117047A1, “DRUG FOR PREVENTING AND/OR TREATING DEMENTIA” (NATIONAL UNIVERSITY CORPORATION TOTTORI UNIVERSITY, priority 2015, published 2018).
Read-outs that look alike come from different tables or passages of the source.

Tested on: F11 cell strain, fusion cells of rat primarily cultured nerve cells and mouse neuroblastomas, expressing N141I mutant of presenilin 2
Conditions: cited from earlier work

Structure (SMILES) | Nerve cell death caused by addition of ecdysone (100 nM xanthine oxidase inhibitor simultaneously with 100 μM acetyl-L-aspartyl-L-glutamyl-L-valyl-L-aspart-1-al (caspase inhibitor)) | Nerve cell death caused by addition of ecdysone (100 μM oxypurinol simultaneously with 100 μM acetyl-L-aspartyl-L-glutamyl-L-valyl-L-aspart-1-al (caspase inhibitor)) | Nerve cell death caused by addition of ecdysone (100 μM oxypurinol simultaneously with 300 μM apocynin (NADPH oxidase inhibitor))
COc1cc(-c2cnn3c(O)ncnc23)ccc1[S+]([O-])c1ccccc1.[Na] (single isomer, unassigned; (-)) [(−)-4-hydroxy-8-(3-methoxy-4-phenylsulfinylphenyl)pyrazolo[1,5-a]-1,3,5-triazine sodium salt] | suppressed |  | 
O=c1[nH]c(=O)c2c[nH]nc2[nH]1 [oxypurinol] |  | suppressed | suppressed
